≈ marks a conversion by molar mass, not a printed value.

The conditions of this series: buffer; pH 7.4; 200.0 µM.
On to `NS(=O)(=O)c1cc(C(=O)OC2CCOC2=O)ccc1Cl` (stereo unspecified), for which the kinetic solubility – broadly, the concentration staying in solution when a stock, usually in DMSO, is diluted into the medium – was more than 48 µg/mL. In the case of `CCOC(=O)CC1C(=O)NCCN1S(=O)(=O)c1ccc(C)cc1` (stereo unspecified) it was more than 51.1 µg/mL; in that of `COc1cccc(N2CCN(C(=O)c3cc4ccc(OC)cc4[nH]3)CC2)c1`, 1.6 µg/mL (≈ 4.38 µM); in that of `O=C(O)CCSC1CC(=O)N(c2ccccc2)C1=O` (stereo unspecified), more than 41.9 µg/mL. In the case of `CC(=O)c1cccc(NS(=O)(=O)N2CCOCC2)c1` it was more than 42.6 µg/mL; in that of `COc1cccc(-c2nc(N3CCCC3)c3ccccc3n2)c1O`, less than 0.2 µg/mL. In the case of `COc1ccccc1C(=O)Nc1ccc2c(c1)n(C)c(=O)n2C` it was 43.6 µg/mL (≈ 140 µM); in that of `CCCCOc1ccc(-c2ncc([N+](=O)[O-])cn2)cc1`, less than 0.2 µg/mL.

On to `O=C(c1cc2ccccc2s1)N1CCN(c2ccccn2)CC1`, for which the solubility (kinetic) was 8.9 µg/mL (≈ 27.5 µM).

In turn, `CCN1C(=O)C(=O)N(CC(=O)Nc2cccc(C(F)(F)F)c2)C1=O` gave a solubility (kinetic) of more than 51.5 µg/mL. In the case of `CCOC(=O)c1cc(S(=O)(=O)NC2CCCCC2)cn1C` it was 43.9 µg/mL (≈ 140 µM); in that of `Cc1csc(SCC(=O)Nc2cc(C(N)=O)cc(C(N)=O)c2)n1`, 51.6 µg/mL (≈ 147 µM); in that of `CCN(CC)c1ccc(/C=C2\SC(=O)N(C(C)C)C2=O)o1`, 4.1 µg/mL (≈ 13.3 µM). In the case of `CCCc1ccc(OCC(O)CN2CCCC2)cc1.Cl` (stereo unspecified) it was 37.2 µg/mL. To `Cc1nc2ccc(NC(=O)Cc3cccc(F)c3)cc2s1` belongs 11.5 µg/mL (≈ 38.3 µM); to `CC(C)CCn1c2ccccc2c2cc(CC(N)=O)ccc21`, 0.4 µg/mL (≈ 1.36 µM). `CCc1cccc(C)c1NC(=O)c1cccnc1` yielded a kinetic solubility of 34.4 µg/mL (≈ 143 µM). In the case of `NC(=O)CSc1nc2ccc([N+](=O)[O-])cc2[nH]1` it was more than 37.8 µg/mL. To `COc1ccc(OCC(=O)Nc2cc(OC)ccc2N2CCCCC2)cc1` belongs less than 0.4 µg/mL; to `COc1ccc(/C=N\Nc2ncc(F)c(N3CCOCC3)n2)cc1OC`, more than 54.2 µg/mL. To `O=C(O)COc1ccccc1/C=N/NC(=O)c1ccc(F)cc1` belongs more than 47.4 µg/mL; to `Cl.O=C(NCCN1CCOCC1)c1ccccc1OCc1ccccc1`, more than 56.5 µg/mL; to `CNC(=S)N1CCN(c2nc(-c3ccc(F)cc3)cs2)CC1`, 2.5 µg/mL (≈ 7.43 µM). Take `COc1ccccc1N1CCN(c2ccc([N+](=O)[O-])cn2)CC1`: the kinetic solubility is 16.2 µg/mL (≈ 51.5 µM). In the case of `NC(=O)COc1ccc(NC(=O)CC23CC4CC(CC(C4)C2)C3)cc1` it was 8.9 µg/mL (≈ 26 µM). Turning to `COc1ccccc1NC(=O)Nc1ccc(C)cn1`, the solubility (kinetic) was 0.8 µg/mL (≈ 3.11 µM).

`COc1ccc(NS(=O)(=O)c2cc(NC(=O)[C@H](C)NC(N)=O)ccc2N2CCCC2)cc1` displayed a kinetic solubility of more than 69.2 µg/mL. To `Clc1cccc(CN2CCc3c([nH]c4ccccc34)C2)c1` belongs 8.2 µg/mL (≈ 27.6 µM). In the case of `CCc1noc(C)c1C(=O)OCC(=O)NC(=O)c1ccccc1OC` it was 18.6 µg/mL (≈ 53.7 µM); in that of `O=C(CSc1nc2c(cnn2-c2ccccc2)c(=O)[nH]1)NCC1CCCO1` (stereo unspecified), more than 57.8 µg/mL. `S=C1SCN(Cc2cccnc2)CN1Cc1ccccc1` yielded a solubility (kinetic) of 38.9 µg/mL (≈ 123 µM).

For `Cc1ccccc1NC(=O)CC(=O)Nc1ccccc1C`, the solubility (kinetic) was more than 42.4 µg/mL. `Cn1cnc([N+](=O)[O-])c1SCCO` returned a solubility (kinetic) of more than 30.5 µg/mL. In turn, `O=C(O)c1ccc(S(=O)(=O)NC2CC2)cc1` yielded a kinetic solubility of more than 36.2 µg/mL. To `Cc1ccc(CNS(=O)(=O)c2c(C)[nH]c(=O)[nH]c2=O)cc1` belongs more than 46.4 µg/mL. As to `O=C(NNC(=O)c1cc([N+](=O)[O-])ccc1Cl)c1cccnc1`, the solubility (kinetic) was more than 48.1 µg/mL. In the case of `Br.C=CCn1c(C)csc1=Nc1ccccc1C` it was 10.9 µg/mL; in that of `CCOC(=O)c1c(C)[nH]c(C)c1C(=O)COC(=O)c1cccnc1Cl`, more than 54.7 µg/mL. In the case of `CC(O)c1nc2ccccc2n1CCCc1ccccc1` (stereo unspecified) it was more than 42.1 µg/mL. In the case of `CN1CCN(CCNC(=O)Nc2ccccc2[N+](=O)[O-])CC1` it was 45.5 µg/mL (≈ 148 µM); in that of `COc1ccc(C(=O)Nc2ccc(NC(=O)C3CC3)nc2)cc1`, 1.7 µg/mL (≈ 5.46 µM).
